Among the data in US10280159B2 (AbbVie Deutschland GmbH & Co. KG, priority 2015, dated 2019) are EC50 values, retold here.

Common to all, as to type: cell-based
In one test the target is T1, human S1PR3 (Homo sapiens, UniProt Q99500).
T1 construct: host or cells: CHO-K1
As to the kind of experiment: Intracellular Ca2+ release (FLIPR) agonist potency, S1P3. The note with it: recombinant CHO-K1 cells expressing human S1PR3, aequorin, Gq/i5; Calcium 5 FLIPR; read-out: S1P3 EC50. The procedure:
Agonistic activity was measured using the method described below.
Intracellular Ca^2+ Release
Agonist potency and intrinsic activity was assessed by measurement of intracellular Ca^2+ release. Recombinant CHO-K1 cells (Euroscreen, Brussels, Belgium) expressing human S1PR5, S1PR1, S1PR3 or S1PR4 receptors, aequorin, and GTP binding protein Gq/i5 were cultured using a medium containing nutrient mixture F-12 Ham (Sigma-Aldrich) with 10% FBS, and 100 μg/mL gentamicin and equilibrated at 5% CO2.
Phospho-fingolimod was used as positive control. Antagonists were pre-incubated for 10 min with cells before addition of the agonist (phospho-fingolimod at EC80). Measurements were performed using a fluorometric imaging plate reader FLIPR®tetra (Molecular Devices). Agonist at the human S1P receptors were characterized by deducing EC50 (potency) values from a nonlinear fit to the measured fluorescence raw data after normalization to the reference agonist (phospho-fingolimod) curve.

The target of another test is T2, human S1PR1 (Homo sapiens, UniProt P21453).
T2 construct: host or cells: CHO-K1
As to the kind of experiment: Intracellular Ca2+ release (FLIPR) agonist potency, S1P1. Conditions: recombinant CHO-K1 cells expressing human S1PR1, aequorin, Gq/i5; Calcium 5 FLIPR; read-out: S1P1 EC50. In short, it runs like this:
(§1)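 Readout: FLIPR fluorescence of intracellular Ca2+ release in CHO-K1 cells co-expressing receptor, aequorin and Gq/i5. Data were normalized to the phospho-fingolimod curve; EC50 from nonlinear fit. Phospho-fingolimod served as positive control.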

The target in the next test is T3, human S1PR4 (Homo sapiens, UniProt O95977).
T3 construct: host or cells: CHO-K1
T3 sequence (O95977 1-384): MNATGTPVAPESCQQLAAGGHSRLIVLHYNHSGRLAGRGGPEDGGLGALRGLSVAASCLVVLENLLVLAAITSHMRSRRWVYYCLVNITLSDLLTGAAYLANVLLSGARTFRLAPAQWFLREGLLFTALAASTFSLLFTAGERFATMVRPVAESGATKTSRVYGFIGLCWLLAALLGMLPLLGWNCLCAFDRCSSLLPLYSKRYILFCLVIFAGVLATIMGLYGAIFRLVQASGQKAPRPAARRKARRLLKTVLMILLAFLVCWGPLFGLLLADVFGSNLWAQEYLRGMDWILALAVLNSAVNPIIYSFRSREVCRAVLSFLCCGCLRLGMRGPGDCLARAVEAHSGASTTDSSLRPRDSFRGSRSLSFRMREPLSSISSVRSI
As to the kind of experiment: Intracellular Ca2+ release (FLIPR) agonist potency, S1P4. Conditions: recombinant CHO-K1 cells expressing human S1PR4, aequorin, Gq/i5; Calcium 5 FLIPR; read-out: S1P4 EC50. An outline of the steps:
as §1

Another test deals with T4, human S1PR5 (Homo sapiens, UniProt Q9H228).
T4 construct: host or cells: CHO-K1
As to the kind of experiment: Intracellular Ca2+ release (FLIPR) agonist potency, S1P5. Conditions: recombinant CHO-K1 cells expressing human S1PR5, aequorin, Gq/i5; Calcium 5 FLIPR; read-out: S1P5 EC50 range. In short, it runs like this:
as §1

T2 sequence (P21453 whole entry): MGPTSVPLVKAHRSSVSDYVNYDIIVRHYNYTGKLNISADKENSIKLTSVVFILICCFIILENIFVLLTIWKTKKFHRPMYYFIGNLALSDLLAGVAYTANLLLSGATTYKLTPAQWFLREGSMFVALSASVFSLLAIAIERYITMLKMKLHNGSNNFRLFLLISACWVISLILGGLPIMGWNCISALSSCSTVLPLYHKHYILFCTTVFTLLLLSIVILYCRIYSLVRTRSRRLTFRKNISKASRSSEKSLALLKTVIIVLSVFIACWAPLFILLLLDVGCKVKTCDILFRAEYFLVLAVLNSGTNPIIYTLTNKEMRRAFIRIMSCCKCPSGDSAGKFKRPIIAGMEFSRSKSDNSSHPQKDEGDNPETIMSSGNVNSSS
T1 sequence (Q99500 whole entry): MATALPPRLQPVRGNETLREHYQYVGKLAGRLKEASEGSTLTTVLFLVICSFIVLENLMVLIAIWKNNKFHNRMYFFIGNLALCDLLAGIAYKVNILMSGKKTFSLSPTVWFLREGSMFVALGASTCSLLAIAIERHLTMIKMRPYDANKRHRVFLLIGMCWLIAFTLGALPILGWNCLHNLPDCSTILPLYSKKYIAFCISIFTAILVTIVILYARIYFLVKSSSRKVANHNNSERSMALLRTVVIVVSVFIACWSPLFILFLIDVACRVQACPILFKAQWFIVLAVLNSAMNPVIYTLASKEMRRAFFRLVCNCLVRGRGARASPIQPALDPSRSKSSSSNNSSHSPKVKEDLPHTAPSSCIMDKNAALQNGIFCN
T4 sequence (Q9H228 whole entry): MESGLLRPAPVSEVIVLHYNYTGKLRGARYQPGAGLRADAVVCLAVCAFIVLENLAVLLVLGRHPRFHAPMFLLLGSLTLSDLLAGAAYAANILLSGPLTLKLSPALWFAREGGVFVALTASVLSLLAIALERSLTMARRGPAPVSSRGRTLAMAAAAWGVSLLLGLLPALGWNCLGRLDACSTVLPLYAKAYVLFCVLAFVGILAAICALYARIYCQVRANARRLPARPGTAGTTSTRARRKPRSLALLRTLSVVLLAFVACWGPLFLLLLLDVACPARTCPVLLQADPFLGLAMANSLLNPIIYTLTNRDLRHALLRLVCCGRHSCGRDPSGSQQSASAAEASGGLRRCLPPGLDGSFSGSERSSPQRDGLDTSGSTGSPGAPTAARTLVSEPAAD

Take `O=C(O)C1CCN(C2COc3cc(OCc4c(Cl)cccc4Cl)ccc3C2)C1` (single isomer, unassigned) [Compound 50, 1-(7-((2,6-dichlorobenzyl)oxy)chroman-3-yl)pyrrolidine-3-carboxylic acid]: the EC50 (in general, the concentration at which the effect is half-maximal) at human S1PR3 was over 1000 nM; on human S1PR1, over 1000 nM; at human S1PR4 it was over 1000 nM; on human S1PR5 it was under 10 nM.
For the compound `O=C(O)C1CN(C2COc3cc(OCc4c(Cl)cccc4Cl)ccc3C2)C1` (centres unmarked) [Compound 1, 1-(7-((2,6-dichlorobenzyl)oxy)chroman-3-yl)azetidine-3-carboxylic acid], the concentration for a half-maximal effect (EC50) on human S1PR3 was over 1000 nM; at human S1PR1, over 1000 nM; at human S1PR4 it was over 1000 nM; on human S1PR5, under 10 nM.
Turning to `CCc1cccc(Cl)c1COc1ccc2c(c1)CCC(NC1(C(=O)O)CC1)C2` (centres unmarked) [Compound 5, 1-((6-((2-chloro-6-ethylbenzyl)oxy)-1,2,3,4-tetrahydronaphthalen-2-yl)amino)cyclopropanecarboxylic acid], the concentration giving a half-maximal response (EC50) at human S1PR3 was over 1000 nM; at human S1PR1 it was over 1000 nM; at human S1PR4, under 1000 nM; at human S1PR5 it was under 10 nM.
Take `CCc1cccc(Cl)c1COc1ccc2c(c1)CCC(NCCC(=O)O)C2` (centres unmarked) [Compound 6, 3-((6-((2-chloro-6-ethylbenzyl)oxy)-1,2,3,4-tetrahydronaphthalen-2-yl)amino)propanoic acid]: the concentration giving a half-maximal response (EC50) is over 1000 nM at human S1PR3, under 1000 nM at human S1PR1 and under 10 nM on human S1PR5.
Taken in the same sequence, the figures for `O=C(O)CCNC1CCc2cc(OCc3ccccc3)ccc2C1` (centres unmarked) [Compound 7, 3-((6-(benzyloxy)-1,2,3,4-tetrahydronaphthalen-2-yl)amino)propanoic acid] were over 1000 nM, over 1000 nM and 10 to 100 nM.
With `O=C(O)CCNC1CCc2cc(OCc3ccccc3Cl)ccc2C1` (centres unmarked) [Compound 8, 3-((6-((2-chlorobenzyl)oxy)-1,2,3,4-tetrahydronaphthalen-2-yl)amino)propanoic acid], the EC50 on human S1PR3 was over 1000 nM; at human S1PR1, over 1000 nM; at human S1PR4, under 1000 nM; on human S1PR5, under 10 nM.
Turning to `O=C(O)CCNC1CCc2cc(OCc3c(Cl)cccc3Cl)ccc2C1` (centres unmarked) [Compound 9, 3-((6-((2,6-dichlorobenzyl)oxy)-1,2,3,4-tetrahydronaphthalen-2-yl)amino)propanoic acid], the EC50 at human S1PR3 is over 1000 nM; at human S1PR1 it was over 1000 nM; at human S1PR5, under 10 nM.
As to `O=C(O)CCNC1CCc2ccc(OCc3c(Cl)cccc3Cl)cc2C1` (centres unmarked) [Compound 10, 3-((7-((2,6-dichlorobenzyl)oxy)-1,2,3,4-tetrahydronaphthalen-2-yl)amino)propanoic acid], the EC50 is over 1000 nM at human S1PR3, over 1000 nM at human S1PR1 and 1000 to 10000 nM at human S1PR5.
For `O=C(O)CCNC1CCc2cc(OCc3ccc(Cl)cc3)ccc2C1` (centres unmarked) [Compound 11, 3-((6-((4-chlorobenzyl)oxy)-1,2,3,4-tetrahydronaphthalen-2-yl)amino) propanoic acid], the values for the concentration giving a half-maximal response (EC50) at human S1PR3, at human S1PR1 and on human S1PR5 were over 1000 nM, over 1000 nM and 1000 to 10000 nM, respectively.
Take `O=C(O)CCNC1CCc2cc(C#Cc3c(Cl)cccc3Cl)ccc2C1` (centres unmarked) [Compound 12, 3-((6-((2,6-dichlorophenyl)ethynyl)-1,2,3,4-tetrahydronaphthalen-2-yl)amino)propanoic acid]: the EC50 was over 1000 nM on human S1PR3, over 1000 nM on human S1PR1, under 1000 nM on human S1PR4 and under 10 nM at human S1PR5.
Take `CN(CCC(=O)O)C1CCc2cc(C#Cc3c(Cl)cccc3Cl)ccc2C1` (centres unmarked) [Compound 13, 3-((6-((2,6-dichlorophenyl)ethynyl)-1,2,3,4-tetrahydronaphthalen-2-yl)(methyl)amino)propanoic acid]: the concentration giving a half-maximal response (EC50) at human S1PR3 is over 1000 nM; at human S1PR1, over 1000 nM; at human S1PR4 it was under 1000 nM; on human S1PR5, under 10 nM.
For the compound `O=C(O)CCNC1CCc2cc(C#Cc3cc(F)cc(F)c3)ccc2C1` (centres unmarked) [Compound 14, 3-((6-((3,5-difluorophenyl)ethynyl)-1,2,3,4-tetrahydronaphthalen-2-yl)amino)propanoic acid], the EC50 at human S1PR3 was over 1000 nM; on human S1PR1 it was over 1000 nM; at human S1PR4, under 1000 nM; at human S1PR5, under 10 nM.
For `CN(CCC(=O)O)C1CCc2cc(C#Cc3cc(F)cc(F)c3)ccc2C1` (centres unmarked) [Compound 15, 3-((6-((3,5-difluorophenyl)ethynyl)-1,2,3,4-tetrahydronaphthalen-2-yl)(methyl)amino)propanoic acid], the EC50 is over 1000 nM at human S1PR3, over 1000 nM at human S1PR1, under 1000 nM on human S1PR4 and under 10 nM on human S1PR5.
For the compound `CN(CCC(=O)O)C1CCc2cc(OCc3ccccc3Cl)ccc2C1` (centres unmarked) [Compound 16, 3-((6-((2-chlorobenzyl)oxy)-1,2,3,4-tetrahydronaphthalen-2-yl)(methyl)amino)propanoic acid], the EC50 on human S1PR3 was over 1000 nM; on human S1PR1, over 1000 nM; on human S1PR4 it was under 1000 nM; at human S1PR5, 100 to 1000 nM.
For the compound `CCc1cccc(Cl)c1COc1ccc2c(c1)CCC(N(C)CCC(=O)O)C2` (centres unmarked) [Compound 17, 3-((6-((2-chloro-6-ethylbenzyl)oxy)-1,2,3,4-tetrahydronaphthalen-2-yl)(methyl)amino)propanoic acid], the EC50 at human S1PR3 is over 1000 nM; on human S1PR1, under 1000 nM; at human S1PR4, under 1000 nM; on human S1PR5, under 10 nM.
Consider `O=C(O)CCNC1CCc2cc(/C=C/c3c(Cl)cccc3Cl)ccc2C1` (centres unmarked) [Compound 18, (E)-3-((6-(2,6-dichlorostyryl)-1,2,3,4-tetrahydronaphthalen-2-yl)amino)-propanoic acid], for which the 50% effective concentration (EC50) on human S1PR3 was over 1000 nM; at human S1PR1, under 1000 nM; on human S1PR4, under 1000 nM; at human S1PR5, under 10 nM.
For `O=C(O)CCNC1CCc2cc(/C=C/c3ccccc3)ccc2C1` (centres unmarked) [Compound 19, (E)-3-((6-styryl-1,2,3,4-tetrahydronaphthalen-2-yl)amino)propanoic acid], the EC50 on human S1PR3 is over 1000 nM; at human S1PR1, over 1000 nM; at human S1PR4, under 1000 nM; on human S1PR5, 10 to 100 nM.
As to `O=C(O)CCNC1CCc2cc(/C=C/c3cccc(Cl)c3)ccc2C1` (centres unmarked) [Compound 20, (E)-3-((6-(3-chlorostyryl)-1,2,3,4-tetrahydronaphthalen-2-yl)amino)-propanoic acid], the EC50 on human S1PR3 is over 1000 nM; on human S1PR1 it was over 1000 nM; on human S1PR4 it was under 1000 nM; on human S1PR5 it was under 10 nM.
On to `O=C(O)CCNC1CCc2cc(OCc3c(Cl)cccc3C3CC3)ccc2C1` (centres unmarked) [Compound 21, 3-((6-((2-chloro-6-cyclopropylbenzyl)oxy)-1,2,3,4-tetrahydronaphthalen-2-yl)amino)propanoic acid], for which the EC50 was over 1000 nM at human S1PR3, over 1000 nM at human S1PR1, over 1000 nM at human S1PR4 and 1000 to 10000 nM on human S1PR5.
`C=C(CN(Cc1c(Cl)cccc1CC)C1CCc2cc(OCc3c(Cl)cccc3CC)ccc2C1)C(=O)OC` (centres unmarked) [Compound 22, Methyl 2-(((2-chloro-6-ethylbenzyl)(6-((2-chloro-6-ethylbenzyl)oxy)-1,2,3,4-tetrahydronaphthalen-2-yl)amino)methyl)acrylate]: the half-maximal effective concentration (EC50) at human S1PR3 is over 1000 nM; on human S1PR1, over 1000 nM; at human S1PR4, over 1000 nM; at human S1PR5, 1000 to 10000 nM.
In the case of `CCc1cccc(Cl)c1COc1ccc2c(c1)OCC(N1CC(C(=O)O)C1)C2` (centres unmarked) [Compound 23, 1-(7-((2-chloro-6-ethylbenzyl)oxy)chroman-3-yl)azetidine-3-carboxylic acid], the half-maximal effective concentration (EC50) at human S1PR3 is over 1000 nM; on human S1PR1 it was over 1000 nM; at human S1PR4 it was under 1000 nM; at human S1PR5, under 10 nM.
Take `O=C(O)C1CN(C2COc3cc(OCc4cccc(Cl)c4)ccc3C2)C1` (centres unmarked) [Compound 24, 1-(7-((3-chlorobenzyl)oxy)chroman-3-yl)azetidine-3-carboxylic acid]: the EC50 at human S1PR3 was over 1000 nM; on human S1PR1 it was over 1000 nM; at human S1PR4, over 1000 nM; at human S1PR5, 1000 to 10000 nM.
